Assay results reported in PubChem BioAssay (NCI).
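Method: 48-hour compound exposure of cells in 96-well plates, five concentrations, linear interpolation of endpoints. GI50 = concentration required for 50% inhibition of growth. TGI: concentration producing complete growth inhibition.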

Assays:
Experiment in all cases: DTP human tumour cell line panel, 48 h
BT-549 breast = system: BT-549 breast
SK-MEL-2 melanoma = system: SK-MEL-2 melanoma
ACHN renal = system: ACHN renal
KM12 colon = system: KM12 colon
SK-MEL-28 melanoma = system: SK-MEL-28 melanoma
TK-10 renal = system: TK-10 renal
NCI/ADR-RES ovarian = system: NCI/ADR-RES ovarian
SW-620 colon = system: SW-620 colon
HCT-116 colon = system: HCT-116 colon
HCC-2998 colon = system: HCC-2998 colon
K-562 leukemia = system: K-562 leukemia
T-47D breast = system: T-47D breast
MDA-MB-435 = system: MDA-MB-435
RXF 393 renal = system: RXF 393 renal
UACC-257 melanoma = system: UACC-257 melanoma
MOLT-4 leukemia = system: MOLT-4 leukemia
NCI-H522 lung = system: NCI-H522 lung
OVCAR-4 ovarian = system: OVCAR-4 ovarian
SNB-75 CNS = system: SNB-75 CNS
PC-3 prostate = system: PC-3 prostate
MCF7 breast = system: MCF7 breast
NCI-H23 lung = system: NCI-H23 lung
786-0 renal = system: 786-0 renal
U251 CNS = system: U251 CNS
A549 NSCLC = system: A549 NSCLC
MDA-MB-231 breast = system: MDA-MB-231 breast
M14 melanoma = system: M14 melanoma
NCI-H460 lung = system: NCI-H460 lung
SF-539 CNS = system: SF-539 CNS
UACC-62 melanoma = system: UACC-62 melanoma
SK-MEL-5 melanoma = system: SK-MEL-5 melanoma
SK-OV-3 ovarian = system: SK-OV-3 ovarian
HOP-92 NSCLC = system: HOP-92 NSCLC
A498 renal = system: A498 renal
NCI-H226 lung = system: NCI-H226 lung
OVCAR-5 ovarian = system: OVCAR-5 ovarian
IGROV1 ovarian = system: IGROV1 ovarian
HS 578T breast = system: HS 578T breast
HOP-62 NSCLC = system: HOP-62 NSCLC
CAKI-1 renal = system: CAKI-1 renal
DU-145 prostate = system: DU-145 prostate
SR leukemia = system: SR leukemia
RPMI-8226 leukemia = system: RPMI-8226 leukemia
SN12C renal = system: SN12C renal
MALME-3M melanoma = system: MALME-3M melanoma
COLO 205 colon = system: COLO 205 colon
CCRF-CEM leukemia = system: CCRF-CEM leukemia
OVCAR-3 ovarian = system: OVCAR-3 ovarian
SF-295 CNS = system: SF-295 CNS
HL-60(TB) leukemia = system: HL-60(TB) leukemia
EKVX NSCLC = system: EKVX NSCLC
SF-268 CNS = system: SF-268 CNS
UO-31 renal = system: UO-31 renal
LOX IMVI melanoma = system: LOX IMVI melanoma
HT29 colon = system: HT29 colon
SNB-19 CNS = system: SNB-19 CNS
OVCAR-8 ovarian = system: OVCAR-8 ovarian
HCT-15 colon = system: HCT-15 colon

COC(=O)C1=C(C(=O)Nc2cccnc2)C2OC1(C(Cc1ccccc1)Oc1ccccc1)C1OC21 (stereo not drawn)
GI50 (BT-549 breast): 3.43 µM
TGI (BT-549 breast): 12.8 µM
GI50 (SK-MEL-2 melanoma): 12.9 µM
TGI (SK-MEL-2 melanoma): 25.9 µM
GI50 (ACHN renal): 1.49 µM
TGI (ACHN renal): 3 µM
GI50 (KM12 colon): 14.6 µM
TGI (KM12 colon): 33.3 µM
GI50 (SK-MEL-28 melanoma): 1.83 µM
TGI (SK-MEL-28 melanoma): 3.48 µM
GI50 (TK-10 renal): 1.51 µM
TGI (TK-10 renal): 2.85 µM
GI50 (NCI/ADR-RES ovarian): 18.8 µM
TGI (NCI/ADR-RES ovarian): 56.5 µM
GI50 (SW-620 colon): 1.69 µM
TGI (SW-620 colon): 3.58 µM
GI50 (HCT-116 colon): 2.01 µM
TGI (HCT-116 colon): 4.23 µM
GI50 (HCC-2998 colon): 14.7 µM
TGI (HCC-2998 colon): 30.3 µM
GI50 (K-562 leukemia): 2.03 µM
TGI (K-562 leukemia): 6.68 µM
GI50 (T-47D breast): 2.02 µM
TGI (T-47D breast): 4.86 µM
GI50 (MDA-MB-435): 3.79 µM
TGI (MDA-MB-435): 13.6 µM
GI50 (RXF 393 renal): 1.71 µM
TGI (RXF 393 renal): 3.22 µM
GI50 (UACC-257 melanoma): 1.85 µM
TGI (UACC-257 melanoma): 3.71 µM
GI50 (MOLT-4 leukemia): 1.75 µM
TGI (MOLT-4 leukemia): 5.2 µM
GI50 (NCI-H522 lung): 1.37 µM
TGI (NCI-H522 lung): 2.95 µM
GI50 (OVCAR-4 ovarian): 2.05 µM
TGI (OVCAR-4 ovarian): 4.66 µM
GI50 (SNB-75 CNS): 8.28 µM
TGI (SNB-75 CNS): 21.1 µM
GI50 (PC-3 prostate): 9.62 µM
TGI (PC-3 prostate): 21.9 µM
GI50 (MCF7 breast): 1.92 µM
TGI (MCF7 breast): 5.33 µM
GI50 (NCI-H23 lung): 12.3 µM
TGI (NCI-H23 lung): 29.1 µM
GI50 (786-0 renal): 1.69 µM
TGI (786-0 renal): 3.33 µM
GI50 (U251 CNS): 10.7 µM
TGI (U251 CNS): 22.6 µM
GI50 (A549 NSCLC): 17.1 µM
TGI (A549 NSCLC): 31.2 µM
GI50 (MDA-MB-231 breast): 2.77 µM
TGI (MDA-MB-231 breast): 6.52 µM
GI50 (M14 melanoma): 2.62 µM
TGI (M14 melanoma): 7.45 µM
GI50 (NCI-H460 lung): 16.4 µM
TGI (NCI-H460 lung): 34.1 µM
GI50 (SF-539 CNS): 7.04 µM
TGI (SF-539 CNS): 19.8 µM
GI50 (UACC-62 melanoma): 3.23 µM
TGI (UACC-62 melanoma): 13.1 µM
GI50 (SK-MEL-5 melanoma): 15.6 µM
TGI (SK-MEL-5 melanoma): 31.3 µM
GI50 (SK-OV-3 ovarian): 18.3 µM
TGI (SK-OV-3 ovarian): 48.2 µM
GI50 (HOP-92 NSCLC): 1.46 µM
TGI (HOP-92 NSCLC): 3 µM
GI50 (A498 renal): 11.2 µM
TGI (A498 renal): 23.8 µM
GI50 (NCI-H226 lung): 1.92 µM
TGI (NCI-H226 lung): 4.12 µM
GI50 (OVCAR-5 ovarian): 4.1 µM
TGI (OVCAR-5 ovarian): 16.8 µM
GI50 (IGROV1 ovarian): 9.17 µM
TGI (IGROV1 ovarian): 25.8 µM
GI50 (HS 578T breast): 18.6 µM
TGI (HS 578T breast): 49.9 µM
GI50 (HOP-62 NSCLC): 13.2 µM
TGI (HOP-62 NSCLC): 26.1 µM
GI50 (CAKI-1 renal): 1.78 µM
TGI (CAKI-1 renal): 4 µM
GI50 (DU-145 prostate): 1.77 µM
TGI (DU-145 prostate): 3.27 µM
GI50 (SR leukemia): 0.918 µM
TGI (SR leukemia): 5.13 µM
GI50 (RPMI-8226 leukemia): 2.14 µM
TGI (RPMI-8226 leukemia): 6 µM
GI50 (SN12C renal): 3.67 µM
TGI (SN12C renal): 14.2 µM
GI50 (MALME-3M melanoma): 1.6 µM
TGI (MALME-3M melanoma): 3.31 µM
GI50 (COLO 205 colon): 1.73 µM
TGI (COLO 205 colon): 3.29 µM
GI50 (CCRF-CEM leukemia): 0.36 µM
TGI (CCRF-CEM leukemia): 2.14 µM
GI50 (OVCAR-3 ovarian): 1.78 µM
TGI (OVCAR-3 ovarian): 3.2 µM
GI50 (SF-295 CNS): 14.6 µM
TGI (SF-295 CNS): 28.6 µM
GI50 (HL-60(TB) leukemia): 0.569 µM
TGI (HL-60(TB) leukemia): 2.75 µM
GI50 (EKVX NSCLC): 11.8 µM
TGI (EKVX NSCLC): 27.2 µM
GI50 (SF-268 CNS): 13 µM
TGI (SF-268 CNS): 27.9 µM
GI50 (UO-31 renal): 1.24 µM
TGI (UO-31 renal): 2.49 µM
GI50 (LOX IMVI melanoma): 1.83 µM
TGI (LOX IMVI melanoma): 3.68 µM
GI50 (HT29 colon): 2.73 µM
TGI (HT29 colon): 6.97 µM
GI50 (SNB-19 CNS): 14.8 µM
TGI (SNB-19 CNS): 28.8 µM
GI50 (OVCAR-8 ovarian): 7.94 µM
TGI (OVCAR-8 ovarian): 22.8 µM

COc1cc(/C=C2\N=C(c3ccccc3)N(c3nc4c(Cl)cc(Cl)cc4s3)C2=O)ccc1O
TGI (BT-549 breast): 77.4 µM
TGI (SK-MEL-2 melanoma): 55.1 µM
TGI (ACHN renal): 82.2 µM
TGI (KM12 colon): > 100 µM
TGI (SK-MEL-28 melanoma): > 100 µM
TGI (TK-10 renal): > 100 µM
TGI (NCI/ADR-RES ovarian): > 100 µM
TGI (SW-620 colon): > 100 µM
TGI (HCT-116 colon): 59.7 µM
TGI (HCC-2998 colon): 37.8 µM
TGI (K-562 leukemia): > 100 µM
TGI (T-47D breast): 72.6 µM
TGI (MDA-MB-435): > 100 µM
TGI (RXF 393 renal): 49.1 µM
TGI (UACC-257 melanoma): > 100 µM
TGI (MOLT-4 leukemia): 43.3 µM
TGI (OVCAR-4 ovarian): > 100 µM
TGI (SNB-75 CNS): 75 µM
TGI (PC-3 prostate): 38.3 µM
TGI (MCF7 breast): > 100 µM
TGI (786-0 renal): > 100 µM
TGI (U251 CNS): 75.4 µM
TGI (A549 NSCLC): > 100 µM
TGI (MDA-MB-231 breast): > 100 µM
TGI (M14 melanoma): > 100 µM
TGI (NCI-H460 lung): > 100 µM
TGI (SF-539 CNS): > 100 µM
TGI (UACC-62 melanoma): > 100 µM
TGI (SK-MEL-5 melanoma): > 100 µM
TGI (SK-OV-3 ovarian): > 100 µM
TGI (HOP-92 NSCLC): 68 µM
TGI (A498 renal): 49 µM
TGI (OVCAR-5 ovarian): > 100 µM
TGI (IGROV1 ovarian): > 100 µM
TGI (HS 578T breast): 57.2 µM
TGI (HOP-62 NSCLC): > 100 µM
TGI (CAKI-1 renal): > 100 µM
TGI (DU-145 prostate): > 100 µM
TGI (SR leukemia): 29.6 µM
TGI (RPMI-8226 leukemia): 47.4 µM
TGI (SN12C renal): 51.4 µM
TGI (COLO 205 colon): > 100 µM
TGI (CCRF-CEM leukemia): 30.4 µM
TGI (OVCAR-3 ovarian): 91.9 µM
TGI (SF-295 CNS): > 100 µM
TGI (HL-60(TB) leukemia): 39.7 µM
TGI (EKVX NSCLC): > 100 µM
TGI (SF-268 CNS): > 100 µM
TGI (UO-31 renal): 69 µM
TGI (LOX IMVI melanoma): 53.6 µM
TGI (HT29 colon): 78.5 µM
TGI (HCT-15 colon): > 100 µM
TGI (SNB-19 CNS): > 100 µM
TGI (OVCAR-8 ovarian): > 100 µM
